This passage reports Ki results from patent US8461328B2, “Tricyclic heterocyclic compounds, compositions and methods of use thereof” (Genentech, Inc., priority 2010, dated 2013).

Assay type in all cases: biochemical
In one assay the target is T1, JAK3 (Homo sapiens, UniProt P52333).
T1 construct: made in house; host or cells: SF9 insect cells (baculovirus)
The experiment in a line: JAK3 inhibition (Table 4). Conditions: read-out: JAK3 Ki.

A further assay has as its target T2, TYK2 (Homo sapiens, UniProt P29597).
T2 construct: made in house; host or cells: SF9 insect cells (baculovirus)
T2 sequence (P29597 873-1187): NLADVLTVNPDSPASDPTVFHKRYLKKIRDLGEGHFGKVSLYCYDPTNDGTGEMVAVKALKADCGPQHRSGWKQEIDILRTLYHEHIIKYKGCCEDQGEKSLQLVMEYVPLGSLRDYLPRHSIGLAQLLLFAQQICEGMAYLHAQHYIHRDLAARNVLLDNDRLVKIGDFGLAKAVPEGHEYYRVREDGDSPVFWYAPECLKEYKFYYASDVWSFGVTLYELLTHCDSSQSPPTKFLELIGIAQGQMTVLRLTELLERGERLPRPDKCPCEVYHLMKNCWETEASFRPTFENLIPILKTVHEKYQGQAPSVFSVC
The experiment in a line: TYK2 inhibition (Table 4).

In another assay the target is T3, JAK2 (Homo sapiens, UniProt O60674).
T3 construct: made in house; host or cells: SF9 insect cells (baculovirus)
T3 sequence (O60674 812-1132): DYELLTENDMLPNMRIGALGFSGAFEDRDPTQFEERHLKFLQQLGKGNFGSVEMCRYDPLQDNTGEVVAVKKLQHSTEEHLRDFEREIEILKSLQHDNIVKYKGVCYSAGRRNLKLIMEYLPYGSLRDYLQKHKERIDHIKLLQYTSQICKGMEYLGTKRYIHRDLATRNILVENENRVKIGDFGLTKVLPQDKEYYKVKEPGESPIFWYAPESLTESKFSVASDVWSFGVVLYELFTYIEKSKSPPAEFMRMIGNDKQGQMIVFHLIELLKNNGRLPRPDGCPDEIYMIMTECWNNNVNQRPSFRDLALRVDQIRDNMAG
The experiment in a line: JAK2 inhibition (Table 4). Conditions: read-out: JAK2 Ki.

Structures are written as SMILES.

T1 sequence (P52333 783-1124): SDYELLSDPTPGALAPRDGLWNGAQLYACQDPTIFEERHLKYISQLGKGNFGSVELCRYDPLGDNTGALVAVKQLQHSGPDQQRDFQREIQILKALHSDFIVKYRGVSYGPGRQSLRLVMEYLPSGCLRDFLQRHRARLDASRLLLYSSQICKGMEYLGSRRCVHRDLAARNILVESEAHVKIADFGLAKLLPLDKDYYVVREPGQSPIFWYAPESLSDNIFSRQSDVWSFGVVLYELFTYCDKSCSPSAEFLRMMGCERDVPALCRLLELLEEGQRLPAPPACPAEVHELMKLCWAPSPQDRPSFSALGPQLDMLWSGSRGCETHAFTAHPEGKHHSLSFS

For the molecule `O=C(CC(F)(F)F)NC1CCC(n2nnc3cnc4[nH]ccc4c32)C1` (racemic) [Example 619, Racemic trans 3,3,3-trifluoro-N-[3-(6H-1,2,3,5,6-pentaaza-as-indacen-1-yl)-cyclopentyl]-propionamide], the Ki (in general, the dissociation constant of the complex between target and ligand, obtained from inhibition or displacement) came out at 31.1 nM at JAK3, 118 nM on TYK2 and 14.6 nM on JAK2.

As to `COC[C@H]1CC[C@H](n2c(CNS(C)(=O)=O)nc3cnc4[nH]ccc4c32)CC1` [Example 638, Trans N-[1-(4-methoxymethyl-cyclohexyl)-1,6-dihydro-1,2,3,5,6-tetraaza-as-indacen-2-ylmethyl]-methanesulfonamide], the figures for the Ki at JAK3, at TYK2 and on JAK2 were 150 nM, 70.7 nM and 77.7 nM, respectively.

With `CS(=O)(=O)NCc1nc2cnc3[nH]ccc3c2n1C1CCNCC1` [Example 206, N-(1-Piperidin-4-yl-1,6-dihydro-1,2,3,5,6-tetraaza-as-indacen-2-ylmethyl)-methanesulfonamide], the values for the Ki on JAK3, on TYK2 and at JAK2 were 3050 nM, 565 nM and 812 nM, respectively.

In the case of `FC(F)(F)CN1CCC(n2cnc3cnc4[nH]ccc4c32)CC1` [Example 175, 1-[1-(2,2,2-Trifluoro-ethyl)-piperidin-4-yl]-1,6-dihydro-1,2,3,5,6-tetraaza-as-indacene], the Ki came to 38.1 nM at JAK3, 19.2 nM on TYK2 and 4.6 nM on JAK2.

Take `CS(=O)(=O)N[C@H]1CC[C@@H](n2cnc3cnc4[nH]ccc4c32)CC1` [Example 321, N-[4-(6H-1,3,5,6-Tetraaza-as-indacen-1-yl)-cyclohexyl]-methanesulfonamide]: the figures for the Ki at JAK3, at TYK2 and at JAK2 were 56.1 nM, 38.5 nM and 9.47 nM, respectively.

Take `CS(=O)(=O)NCc1nc2cnc3[nH]ccc3c2n1C1CCN(CC(F)(F)F)CC1` [Example 692, N-{1-[1-(2,2,2-Trifluoro-ethyl)-piperidin-4-yl]-1,6-dihydro-1,2,3,5,6-tetraaza-as-indacen-2-ylmethyl}-methanesulfonamide]: the inhibitory constant (Ki) on JAK3 is 68.4 nM; at TYK2 it was 118 nM; on JAK2 it was 46.6 nM.

In the case of `c1cc2c(ncc3ncn([C@H]4CC[C@H](NCC5CC5)CC4)c32)[nH]1` [Example 574, trans Cyclopropylmethyl-[4-(6H-1,3,5,6-tetraaza-as-indacen-1-yl)-cyclohexyl]-amine], the Ki at JAK3 worked out at 232 nM; at TYK2, 125 nM; on JAK2, 54.6 nM.

Consider `CS(=O)(=O)NCCc1nc2cnc3[nH]ccc3c2n1C1CCCCC1` [Example 514, N-[2-(1-Cyclohexyl-1,6-dihydro-1,3,5,6-tetraaza-as-indacen-2-yl)-ethyl]-methanesulfonamide], for which the Ki was determined as 28.2 nM at JAK3, 15.8 nM on TYK2 and 24.3 nM at JAK2.

As for `CS(=O)(=O)NCc1nc2cnc3[nH]ccc3c2n1[C@@H]1CCCOC1` [Example 866, (R)—N-[1-(Tetrahydro-pyran-3-yl)-1,6-dihydro-1,3,5,6-tetraaza-as-indacen-2-ylmethyl]-methanesulfonamide], the Ki on JAK3 was found to be 1110 nM; at TYK2 it was 1060 nM; on JAK2 it was 604 nM.

Turning to `CC(C)(C)OC(=O)N[C@H]1CC[C@H](n2cnc3cnc4[nH]ccc4c32)CC1` [Example 107, Trans [4-(6H-1,3,5,6-tetraaza-as-indacen-1-yl)-cyclohexyl]-carbamic acid tert-butyl ester], the inhibition constant (Ki) at JAK3 was 132 nM; at TYK2 it was 216 nM; at JAK2, 20 nM.

In the case of `N#CCCN[C@H]1CC[C@@H](n2cnc3cnc4[nH]ccc4c32)CC1` [Example 319, 3-[4-(6H-1,3,5,6-Tetraaza-as-indacen-1-yl)-cyclohexylamino]-propionitrile], the Ki came to 82.9 nM on JAK3, 77.8 nM on TYK2 and 31.2 nM on JAK2.

Consider `O=S(=O)(c1ccccc1)N1CCC(n2cnc3cnc4[nH]ccc4c32)CC1` [Example 55, 1-(1-Benzenesulfonyl-piperidin-4-yl)-1,6-dihydro-1,3,5,6-tetraaza-as-indacene], for which the figures for the Ki at JAK3, at TYK2 and on JAK2 were 334 nM, 31 nM and 6.59 nM, respectively.

For `CS(=O)(=O)NCc1nc2cnc3[nH]ccc3c2n1C1CCN(CCC#N)CC1` [Example 208, N-{1-[1-(2-Cyano-ethyl)-piperidin-4-yl]-1,6-dihydro-1,2,3,5,6-tetraaza-as-indacen-2-ylmethyl}-methanesulfonamide], the figures for the inhibition constant Ki at JAK3, on TYK2 and on JAK2 were 171 nM, 151 nM and 43.1 nM, respectively.

For the molecule `N#CCCN1CCC(n2cnc3cnc4[nH]ccc4c32)CC1` [Example 58, 3-[4-(6H-1,3,5,6-Tetraaza-as-indacen-1-yl)-piperidin-1-yl]propionitrile], the Ki stood at 16.4 nM at JAK3, 3.57 nM at TYK2 and 1 nM on JAK2.

With `C[C@@H](O)c1nc2cnc3[nH]ccc3c2n1C1CCCCC1` [Example 672, (R)-1-(1-Cyclohexyl-1,6-dihydro-1,2,3,5,6-tetraaza-as-indacen-2-yl)-ethanol-d11], the Ki at JAK3 worked out at 17.2 nM; on TYK2 it was 3.01 nM; at JAK2 it was 19.8 nM.

As to `CC1(n2cnc3cnc4[nH]ccc4c32)CCN(Cc2cncnc2)CC1` [Example 322, 1-(4-Methyl-1-pyrimidin-5-ylmethyl-piperidin-4-yl)-1,6-dihydro-1,3,5,6-tetraaza-as-indacene], the values for the Ki on JAK3, on TYK2 and at JAK2 were 84.8 nM, 426 nM and 25.5 nM, respectively.

Consider `CC1CCCCC1n1c(CNS(C)(=O)=O)nc2cnc3[nH]ccc3c21` (stereo not drawn) [Example 917, N-[1-(2-Methyl-cyclohyl)-1,6-dihydro-1,3,5,6-tetraaza-as-indacen-2-ylmethyl]-methanesulfonamide], for which the Ki on JAK3 came to 65 nM; on TYK2, 112 nM; on JAK2, 73.6 nM.

Take `CC1(n2cnc3cnc4[nH]ccc4c32)CCN(CCC#N)CC1` [Example 330, 3-[4-Methyl-4-(6H-1,3,5,6-tetraaza-as-indacen-1-yl)-piperidin-1-yl]-propionitrile]: the figures for the Ki on JAK3, on TYK2 and at JAK2 were 269 nM, 271 nM and 122 nM, respectively.

As for `c1cc2c(ncc3ncn(C4CCC(N5CCOCC5)CC4)c32)[nH]1` (stereo not drawn) [Example 775, 1-(4-Morpholin-4-yl-cyclohexyl)-1,6-dihydro-1,3,5,6-tetraaza-as-indacene], the Ki on JAK3 is 910 nM; at TYK2, 843 nM; on JAK2, 238 nM.

As to `N#Cc1ccnc(N2CCC(n3cnc4cnc5[nH]ccc5c43)CC2)c1` [Example 96, 4-(6H-1,3,5,6-Tetraaza-as-indacen-1-yl)-3,4,5,6-tetrahydro-2H-[1,2′]bipyridinyl-4′-carbonitrile], the Ki was determined as 115 nM on JAK3, 90 nM on TYK2 and 19.7 nM at JAK2.

With `c1cc2c(ncc3ncn([C@H]4CC[C@H](N5CCOCC5)CC4)c32)[nH]1` [Example 594, Trans 1-(4-Morpholin-4-yl-cyclohexyl)-1,6-dihydro-1,2,3,5,6-tetraaza-as-indacene], the inhibitory constant (Ki) on JAK3 was 334 nM; at TYK2, 76.6 nM; on JAK2, 22.7 nM.

As for `CC(C)C(=O)N[C@H]1CC[C@H](n2cnc3cnc4[nH]ccc4c32)CC1` [Example 571, trans N-[4-(6H-1,3,5,6-Tetraaza-as-indacen-1-yl)-cyclohexyl]-isobutyramide], the Ki at JAK3 was 197 nM; at TYK2 it was 101 nM; on JAK2, 21.1 nM.

Consider `CC(C)(C)OC(=O)N[C@@H]1CC[C@H](n2cnc3cnc4[nH]ccc4c32)C1` [Example 135, [(1R,3S)-3-(6H-1,2,3,5,6-Tetraaza-as-indacen-1-yl)-cyclopentyl]-carbamic acid tert-butyl ester], for which the Ki on JAK3 stood at 90.6 nM; at TYK2 it was 161 nM; at JAK2 it was 20.3 nM.

Turning to `CN1CCC[C@H]1C(=O)N1CCC(n2cnc3cnc4[nH]ccc4c32)CC1` [Example 78, ((S)-1-Methyl-pyrrolidin-2-yl)-[4-(6H-1,3,5,6-tetraaza-as-indacen-1-yl)-piperidin-1-yl]methanone], the Ki was determined as 1120 nM on JAK3, 436 nM on TYK2 and 137 nM on JAK2.

In the case of `CS(=O)(=O)N1CCC(n2cnc3cnc4[nH]ccc4c32)CC1` [Example 54, 1-(1-Methanesulfonyl-piperidin-4-yl)-1,6-dihydro-1,3,5,6-tetraaza-as-indacene], the Ki at JAK3 amounted to 84.1 nM; on TYK2, 18.7 nM; at JAK2, 2.99 nM.

With `Cn1ccnc1CCc1nc2cnc3[nH]ccc3c2n1C1CCN(CCC#N)CC1` [Example 411, 3-(4-{2-[2-(1-Methyl-1H-imidazol-2-yl)-ethyl]-6H-1,3,5,6-tetraaza-as-indacen-1-yl}-piperidin-1-yl)-propionitrile], the Ki on JAK3 came to 154 nM; on TYK2, 422 nM; at JAK2, 64.4 nM.

In the case of `CS(=O)(=O)NCc1nc2cnc3[nH]ccc3c2n1C1CCN(CCF)CC1` [Example 913, N-{1-[1-(2-Fluoro-ethyl)-piperidin-4-yl]-1,6-dihydro-1,3,5,6-tetraaza-as-indacen-2-ylmethyl}-methanesulfonamide], the Ki at JAK3 is 61.4 nM; at TYK2, 116 nM; on JAK2 it was 54.7 nM.

In the case of `CS(=O)(=O)NCc1nc2cnc3[nH]ccc3c2n1C1CCN(Cc2ccccc2)CC1` [Example 202, N-[1-(1-Benzyl-piperidin-4-yl)-1,6-dihydro-1,2,3,5,6-tetraaza-as-indacen-2-ylmethyl]-methanesulfonamide], the Ki at JAK3 is 60.3 nM; on TYK2, 831 nM; at JAK2 it was 44.6 nM.
